Assays:
Conditions in all cases: stereoisomer not certain
[1] = RP, Phenomenex Kinetex EVO C18, 100 × 2.1 mm, 2.6 µm, 40 °C, 0.4 mL/min, estimated dead time 0.55 min; A: water + 0.2% formic acid; B: acetonitrile + 0.2% formic acid; gradient (min/%B) 0/5 0.5/5 7/95 8/95 8.5/5 12/5
[2] = RP, Agilent ZORBAX Eclipse XDB-C18, 100 × 2.1 mm, 1.8 µm, 50 °C, 0.4 mL/min, estimated dead time 0.55 min; A: water + 0.1% formic acid, pH 3; B: methanol + 0.1% formic acid, pH 3; gradient (min/%B) 0/2 10/100 14.5/100 14.51/2 16.5/2
[3] = RP, Merck Supelco SUPELCOSIL LC-C18, 250 × 4.6 mm, 5 µm, 40 °C, 1 mL/min, estimated dead time 2.6 min; A: water + 0.1% trifluoroacetic acid, pH 2; B: acetonitrile + 0.1% trifluoroacetic acid, pH 2; gradient (min/%B) 0/5 45/35 47/75 49/35 50/5
[4] = RP, Phenomenex Synergi Hydro-RP, 250 × 2 mm, 4 µm, 25 °C, 0.2 mL/min, estimated dead time 2.5 min; A: water + 0.1% formic acid, pH 3; B: acetonitrile + 0.1% formic acid, pH 3; gradient (min/%B) 0/0.5 7/0.5 12/12.5 25/16.3 47/35 48/65 50/65 50.1/0.5
[5] = RP, Waters ACQUITY UPLC HSS T3, 100 × 2.1 mm, 50 °C; A: water + 0.1% formic acid, pH 3; B: 30% methanol + 70% acetonitrile + 0.1% formic acid, pH 3; gradient (min/%B) 0/5 1/8 2/15 3/40 4/70 4.5/100 5/100 6.4/100 6.6/5 6.8/5 7/5
[6] = RP, Agilent ZORBAX RRHD Eclipse Plus C18, 50 × 2.1 mm, 1.8 µm, 30 °C, 0.4 mL/min, estimated dead time 0.28 min; A: water + 0.1% formic acid, pH 3; B: acetonitrile + 0.1% formic acid, pH 3; gradient (min/%B) 0/1 5/10 8/25 9.1/99 10/99 12/1
[7] = Other, Phenomenex Kinetex PFP, 100 × 4.6 mm, 5 µm, 45 °C, 0.6 mL/min, estimated dead time 1.8 min; A: water + 0.1% trifluoroacetic acid, pH 2; B: methanol; gradient (min/%B) 0/40 20/72 21/40
[8] = RP, Waters ACQUITY UPLC BEH C18, 100 × 2.1 mm, 1.7 µm, 65 °C, 0.4 mL/min, estimated dead time 0.55 min; A: water + 0.1% formic acid, pH 3; B: 80% acetonitrile + 20% acetone + 0.1% formic acid, pH 3; gradient (min/%B) 0/0 5/100 5.5/0 6/0
[9] = RP, Waters Atlantis T3, 100 × 2.1 mm, 3 µm, 40 °C, 0.3 mL/min, estimated dead time 0.73 min; A: water + 0.1% trifluoroacetic acid, pH 2; B: acetonitrile + 0.1% trifluoroacetic acid, pH 2; gradient (min/%B) 0/10 1/10 6/40 7/50 8/50 14/70 16/80 20/10 25/10
[10] = RP, Agilent ZORBAX RRHD Eclipse Plus C18, 50 × 2.1 mm, 1.8 µm, 30 °C, 0.4 mL/min, estimated dead time 0.28 min; A: water + 0.1% formic acid, pH 3; B: acetonitrile + 0.1% formic acid, pH 3; gradient (min/%B) 0/1 5/10 8/25 9.1/99 10/99 12/99
[11] = RP, Merck LiChrospher RP-18, 250 × 4 mm, 5 µm, 35 °C, 0.3 mL/min, estimated dead time 6.7 min; A: water + 0.5% formic acid; B: acetonitrile + 0.5% formic acid; gradient (min/%B) 0/5 10/5 30/15 45/20 65/20 95/54 110/63 115/5 135/5
[12] = RP, Waters ACQUITY UPLC HSS T3, 100 × 2.1 mm, 1.8 µm, 30 °C, 0.4 mL/min, estimated dead time 0.55 min; A: water + 0.1% formic acid, pH 3; B: acetonitrile + 0.1% formic acid, pH 3; gradient (min/%B) 0/0 2/0 15/100 22/100 22.1/0 26/0
[13] = RP, Waters ACQUITY UPLC BEH Shield RP18, 100 × 2.1 mm, 1.7 µm, 30 °C, 0.6 mL/min, estimated dead time 0.37 min; A: water + 0.1% formic acid, pH 3; B: acetonitrile + 0.1% formic acid, pH 3; gradient (min/%B) 0/0 2/0 7/10 22/95 22.1/0 26/0
[14] = RP, Phenomenex Luna Omega Polar C18, 100 × 2.1 mm, 1.6 µm, 40 °C, 0.5 mL/min, estimated dead time 0.44 min; A: water + 0.5% formic acid; B: acetonitrile + 0.5% formic acid; gradient (min/%B) 0/5 3/50 3.1/100 5/100 5.1/5 7/5
[15] = RP, 100 × 0.5 mm, 2.7 µm, 45 °C, 0.015 mL/min, estimated dead time 0.83 min; A: water + 0.9% formic acid; B: acetonitrile + 0.9% formic acid; gradient (min/%B) 0/1 0.5/1 4/95 4.5/1 5/1
[16] = RP, Phenomenex Synergi Hydro-RP, 150 × 2 mm, 4 µm, 30 °C, 0.5 mL/min, estimated dead time 0.6 min; A: water + 0.1% formic acid, pH 3; B: acetonitrile + 0.1% formic acid, pH 3; gradient (min/%B) 0/5 1/5 35/45 40/100 45/100
[17] = RP, 50 × 0.5 mm, 2.7 µm, 35 °C, 0.01 mL/min, estimated dead time 0.62 min; A: water + 0.1% formic acid, pH 3; B: acetonitrile + 0.1% formic acid, pH 3; gradient (min/%B) 0/5 12/95 14/95 16/5
[18] = RP, Phenomenex Luna C18, 150 × 4.6 mm, 3 µm, 25 °C, 0.5 mL/min, estimated dead time 3.2 min; A: water + 0.1% formic acid, pH 3; B: acetonitrile + 0.1% formic acid, pH 3; gradient (min/%B) 0/0 30/30 35/40 50/80 52/80 60/0 65/0
[19] = RP, Agilent InfinityLab Poroshell 120 EC-C18, 100 × 3 mm, 2.7 µm, 25 °C, 0.4 mL/min, estimated dead time 1.1 min; A: water + 0.1% formic acid, pH 3; B: acetonitrile + 0.1% formic acid, pH 3; gradient (min/%B) 0/5 10/25 20/40 24/90 25/90 26/5 30/5
[20] = RP, Phenomenex Luna Omega Polar C18, 100 × 2.1 mm, 1.6 µm, 40 °C, 0.5 mL/min, estimated dead time 0.44 min; A: water + 0.1% formic acid + 10 mM ammonium formate; B: acetonitrile; gradient (min/%B) 0/5 8/20 10/100 12/100 12.1/5 14/5
[21] = RP, Waters ACQUITY UPLC BEH Shield RP18, 150 × 2.1 mm, 1.7 µm, 40 °C, 0.4 mL/min, estimated dead time 0.83 min; A: water + 0.1% formic acid, pH 3; B: acetonitrile + 0.1% formic acid, pH 3; gradient (min/%B) 0/0 30/50 31/100 37/100 37.1/0
[22] = RP, 150 × 2.1 mm, 2.6 µm, 40 °C, 0.35 mL/min, estimated dead time 0.94 min; A: water + 0.1% formic acid, pH 3; B: acetonitrile + 0.1% formic acid, pH 3; gradient (min/%B) 0/0 1/5 7/45 8.5/80 10.5/80 11/5 12/5
[23] = RP, 150 × 2.1 mm, 2.6 µm, 40 °C, 0.35 mL/min, estimated dead time 0.94 min; A: water + 0.1% formic acid, pH 3; B: acetonitrile + 0.1% formic acid, pH 3; gradient (min/%B) 0/0 1/0 12.5/100 14/100 14.2/0 15/0

LC retention time [2] [min] | LC retention time [3] [min] | LC retention time [4] [min] | LC retention time [6] [min] | LC retention time [7] [min] | LC retention time [8] [min] | LC retention time [9] [min] | LC retention time [10] [min] | LC retention time [11] [min] | LC retention time [12] [min] | LC retention time [13] [min] | LC retention time [14] [min] | LC retention time [17] [min] | LC retention time [18] [min] | LC retention time [19] [min] | LC retention time [21] [min] | SMILES | further results
2.91 | 11.3 | 19.9 | 3.9 | 5.08 | 1.65 | 3.58 | 2.55 | 39.7 | – | – | – | – | – | – | – | O=C(O)c1ccc(O)cc1 [4-Hydroxybenzoic acid] | LC retention time [1]: 2.18 min; LC retention time [5]: 2.8 min
9.33 | – | – | – | – | 3.19 | – | – | – | 13.9 | 17.5 | 2.42 | 8.2 | 50 | – | – | CC12CCc3occc3C1CCC13CC(CCC12)C(O)(CO)C3 (centres undefined) [Cafestol] | LC retention time [15]: 4.04 min; LC retention time [16]: 37.9 min
3.27 | 13.8 | 20 | 5.31 | 4.03 | 1.64 | 3.17 | 4.49 | 41.1 | 8.02 | 11 | 1.81 | 3.38 | 12.3 | 5.48 | 7.05 | O=C(C=Cc1ccc(O)c(O)c1)OC1CC(O)(C(=O)O)CC(O)C1O (centres undefined) [Chlorogenic acid] | LC retention time [20]: 3.49 min
1.47 | 5.2 | 13.9 | 1.64 | 3 | 1.5 | 1.56 | 0.713 | 16.5 | 4.98 | 2.69 | 1.15 | 1.44 | 5.35 | 2.36 | 2.41 | O=C(O)c1cc(O)c(O)c(O)c1 [Gallic acid] | LC retention time [1]: 0.96 min; LC retention time [20]: 1.22 min
– | 30.1 | – | – | 9.9 | – | 10 | – | 75.1 | 9.62 | – | – | – | – | 10.8 | 13 | COc1ccc(C2CC(=O)c3c(O)cc(OC4OC(COC5OC(C)C(O)C(O)C5O)C(O)C(O)C4O)cc3O2)cc1O (centres undefined) [Hesperidin] | LC retention time [22]: 6.18 min; LC retention time [23]: 6 min
– | 33.5 | – | – | 12.9 | – | – | – | 42 | – | – | – | – | – | – | – | Oc1ccc(-c2[o+]c3cc(O)cc(O)c3cc2O)cc1 [Pelargonidin] | –
– | 37.2 | 46.8 | 9.04 | 16.6 | 2.63 | 9.34 | 9.19 | 91 | 11 | – | – | – | – | 14.1 | 20.4 | O=c1c(O)c(-c2ccc(O)c(O)c2)oc2cc(O)cc(O)c12 [Quercetin] | LC retention time [5]: 3.74 min
– | 25.2 | 34.1 | – | 8.63 | – | 7.12 | – | 59.2 | – | – | – | – | – | 8.79 | 12.6 | CC1OC(OCC2OC(Oc3c(-c4ccc(O)c(O)c4)oc4cc(O)cc(O)c4c3=O)C(O)C(O)C2O)C(O)C(O)C1O (centres undefined) [Rutin] | –
– | 23 | 33.9 | 7.85 | 7.73 | – | – | 8.66 | – | 9.67 | – | – | – | – | – | 12.4 | O=C1c2c(O)cc(O)cc2OC(c2ccc(O)c(O)c2)C1O (centres undefined) [Taxifolin] | LC retention time [22]: 5.86 min; LC retention time [23]: 5.84 min
2.49 | – | – | – | – | 1.39 | – | – | – | 7.1 | 4.4 | 1.45 | 1.77 | 6.29 | 3.25 | 2.67 | Cn1cnc2c1c(=O)[nH]c(=O)n2C [Theobromine] | LC retention time [5]: 2.12 min; LC retention time [15]: 2.05 min
– | – | – | – | – | – | – | – | – | 0.96 | 0.62 | 0.58 | 0.771 | – | – | 1.03 | C[n+]1cccc(C(=O)[O-])c1 [Trigonelline] | LC retention time [15]: 2.72 min

SMILES | LC retention time [2] [min] | LC retention time [3] [min] | LC retention time [4] [min] | LC retention time [6] [min] | LC retention time [7] [min] | LC retention time [8] [min] | LC retention time [9] [min] | LC retention time [10] [min] | LC retention time [11] [min] | LC retention time [12] [min] | LC retention time [13] [min] | LC retention time [14] [min] | LC retention time [17] [min] | LC retention time [18] [min] | LC retention time [19] [min] | LC retention time [21] [min] | further results
COc1cc(-c2[o+]c3cc(O)cc(O)c3cc2O)cc(OC)c1O [Malvidin] | – | 35.9 | – | – | 14.3 | – | – | – | – | – | – | – | – | – | – | – | –
